# How the values were obtained:
# [1] = biological target: Bromodomain-containing protein 4 (Homo sapiens, UniProt O60885, N140A)
# [2] = biological target: T1, Bromodomain-containing protein 4 (Homo sapiens, UniProt O60885); assay: Inhibition of BRD4 in human MM1S cells assessed as down regulation of c-Myc incubated for 16 hrs by flow cytometry; assay type: cell-based
# [3] = Lipophilicity, log D of compound at pH 7.4; assay type: physicochemical; details: buffer
# [4] = biological target: T1, Bromodomain-containing protein 4; assay: Displacement of Alexa647-labeled JQ1 derivative from wild type BRD4 tandem domain (44 to 460 residues) (unknown origin) incubated for 1 hr by fluorescence polarization assay
# [5] = biological target: T1, Bromodomain-containing protein 4; assay: Inhibition of BRD4 in human MCF7 cells assessed as down regulation of ERalpha after 18 to 24 hrs by Hoechst staining based cellomics arrayscan analysis; assay type: cell-based
# MM1.S = assay: Growth inhibition of human MM1S cells after 72 hrs by alamar blue assay; assay type: functional
# [6] = Intrinsic clearance in human hepatocytes assessed per million cells; assay type: ADME, cell-based, Hepatocyte; details: read-out: CLH
# [7] = Thermodynamic solubility of compound in pH 7.4 solution; assay type: physicochemical; details: buffer, read-out: Therm_solubility
# [8] = biological target: Bromodomain-containing protein 4 (Homo sapiens, UniProt O60885, N433A)
# [9] = Volume of distribution at steady state in rat; assay type: ADME; details: in vivo, read-out: Vdss
# [10] = Dissociation constant, basic pKa of compound; assay type: physicochemical
# [11] = Oral bioavailability in dog; assay type: ADME, organism-based, Canis lupus familiaris; details: in vivo
# [12] = Unbound fraction in rat plasma; assay type: ADME, cell-free
# [13] = Plasma clearance in dog; assay type: ADME, Canis lupus familiaris
# [14] = Oral bioavailability in rat; assay type: ADME, organism-based; details: in vivo
# [15] = Unbound fraction in human plasma; assay type: ADME, cell-free
# [16] = Unbound fraction in dog plasma; assay type: ADME, cell-free, Canis lupus familiaris
# [17] = Intrinsic clearance in dog hepatocytes assessed per million cells; assay type: ADME, cell-based, Canis lupus familiaris, Hepatocyte; details: read-out: CLH
# [18] = Plasma clearance in rat; assay type: ADME
# [19] = Intrinsic clearance in rat hepatocytes assessed per million cells; assay type: ADME, cell-based, Hepatocyte; details: read-out: CLH
# [20] = Apparent permeability from apical to basolateral side in human Caco2 cells; assay type: ADME, cell-based; details: Caco-2
# [21] = Volume of distribution at steady state in dog; assay type: ADME, Canis lupus familiaris; details: in vivo, read-out: Vdss
# [22] = biological target: T1, Bromodomain-containing protein 4; assay: Inhibition of BRD4 in human LNCAP cells assessed as down regulation of nuclear AR level by immunofluorescence assay; assay type: cell-based
Compound,Ki [1] [nM],IC50 [2] [nM],logD [3],Ki [4] [nM],IC50 [5] [nM],GI50 (MM1.S) [nM],hepatocyte CLint [6] [µL/min/1e6 cells],solubility thermodynamic [7] [µM],Ki [8] [nM],IC50 [22] [nM],other results
Cc1nnc2ccc(N3CCC(c4ccc(OCCN5CCN(C)C(=O)[C@H]5C)cc4)CC3)nn12,200,25.1,2.4,15.8,39.8,5.01,7.2,670,251,–,–
COc1nnc2ccc(N3CCC(c4ccc(OCCCN5CCN(C)C(=O)[C@H]5C)cc4)CC3)nn12,63.1,3.16,2.4,3.98,20,< 1.58,5.1,> 1000,79.4,–,–
COc1nnc2ccc(N3CCC(c4ccc(N5CC(CN6CCN(C)C(=O)[C@H]6C)C5)cc4)CC3)nn12,100,< 2,1.7,10,3.98,1.58,4 to 4.1,460 to 1000,158,–,Vd [9]: 1.61 L/kg; pKa [10]: 5.9; bioavailability [11]: 73%; fraction unbound [12]: 0.05; clearance [13]: 5 mL/min/kg; bioavailability [14]: 57%; fraction unbound [15]: 0.32; fraction unbound [16]: 0.27; hepatocyte CLint [17]: 3 µL/min/1e6 cells; clearance [18]: 7 mL/min/kg; hepatocyte CLint [19]: < 1 µL/min/1e6 cells; Papp A→B [20]: 46 ×10⁻⁶ cm/s; Vd [21]: 0.7 L/kg
COc1nnc2ccc(N3CCC(c4ccc(N5CCC(N6CCN(C)C(=O)[C@H]6C)CC5)cc4)CC3)nn12,316,–,2,50.1,158,–,2.7,760,158,–,–
COc1nnc2ccc(N3CCC(c4ccc(N5CC(N6CCN(C)C(=O)[C@H]6C)C5)cc4)CC3)nn12,398,–,1.7,63.1,794,–,< 1.2,870,200,–,–
CN1CCN(CCOc2ccc(C3CCN(c4ccc5nnc(C(F)(F)F)n5n4)CC3)cc2)C(=O)C1,7940,–,3.1,2510,1000,–,26,52,398,–,–
COc1nnc2ccc(N3CCC(c4ccc(OCCCCN5CCN(C)C(=O)[C@H]5C)cc4)CC3)nn12,100,–,2.8,6.31,20,–,12,470,63.1,–,–
C[C@@H]1C(=O)N(C)CCN1CCOc1ccc(C2CCN(c3ccc4nncn4n3)CC2)cc1,2510,1260,1.9,> 1000,> 3160,–,180,1000,6310,1580,–
CSc1nnc2ccc(N3CCC(c4ccc(OCCN5CCN(C)C(=O)[C@H]5C)cc4)CC3)nn12,126,20,2.9,12.6,31.6,–,21,660,158,25.1,–
COc1nnc2ccc(N3CCC(c4ccc(OCCN5[C@H](C)CN(C)C(=O)[C@H]5C)cc4)CC3)nn12,251,12.6,2.3,7.94,20,6.31,80,750,126,–,–
C[C@@H]1C(=O)N(C)CCN1CCOc1ccc(C2CCN(c3ccc4nnc(Cl)n4n3)CC2)cc1,316,79.4,3.1,12.6,39.8,19.9,24,63,200,25.1,–
COc1nnc2ccc(N3CCC(c4ccc(CCN5CCN(C)C(=O)[C@H]5C)cc4)CC3)nn12,126,10,2.5,3.16,25.1,5.01,2 to 2.2,280 to 570,100,–,Vd [9]: 0.7 L/kg; pKa [10]: 6.3; bioavailability [11]: 98%; fraction unbound [12]: 0.02; clearance [13]: 3 mL/min/kg; bioavailability [14]: 72%; fraction unbound [15]: 0.25; fraction unbound [16]: 0.24; hepatocyte CLint [17]: < 1 µL/min/1e6 cells; clearance [18]: 3 mL/min/kg; hepatocyte CLint [19]: < 1 µL/min/1e6 cells; Papp A→B [20]: 28 ×10⁻⁶ cm/s; Vd [21]: 0.9 L/kg
COc1nnc2ccc(N3CCC(c4ccc(OCCN5CCN(C)C(=O)[C@@H]5C)cc4)CC3)nn12,1000,79.4,2.2,126,316,–,< 1.4,900,251,–,–
COc1nnc2ccc(N3CCC(c4ccc(OCCN5C[C@@H](C)N(C(C)=O)[C@@H](C)C5)cc4)CC3)nn12,158,–,3.4,5.01,39.8,–,48,280,50.1,–,–
CN1CCN(CCOc2ccc(C3CCN(c4ccc5nnc(C(F)(F)F)n5n4)CC3)cc2)CC1=O,1000,–,3,200,501,–,18,65,316,316,–
C[C@@H]1C(=O)N(C)CCN1CCOc1ccc(C2CCN(c3ccc4nnc(C(F)(F)F)n4n3)CC2)cc1,63.1,10,3.3 to 4.2,7.94,25.1,5.01,70,63,398,39.8,–
C[C@@H]1C(=O)N(C)CCN1CCOc1ccc(C2CCN(c3ccc4nnc(N(C)C)n4n3)CC2)cc1,316,15.8,2.4,12.6,63.1,3.16,4 to 4.4,1600 to 1680,316,25.1,Vd [9]: 0.4 L/kg; fraction unbound [12]: 0.04; bioavailability [14]: 42%; fraction unbound [15]: 0.16; fraction unbound [16]: 0.09; hepatocyte CLint [17]: 18 µL/min/1e6 cells; clearance [18]: 6 mL/min/kg; hepatocyte CLint [19]: 13 µL/min/1e6 cells
